Here are results for 29 compounds from ChEMBL document CHEMBL1143395, “Cloning, expression, post-translational modifications and inhibition studies on the latest mammalian carbonic anhydrase isoform, CA XV” (J Med Chem, 2009).

As usually defined, the Ki is the dissociation constant of the complex between target and ligand, obtained from inhibition or displacement.

Carbonic anhydrase 6, sequence (P23280 whole entry): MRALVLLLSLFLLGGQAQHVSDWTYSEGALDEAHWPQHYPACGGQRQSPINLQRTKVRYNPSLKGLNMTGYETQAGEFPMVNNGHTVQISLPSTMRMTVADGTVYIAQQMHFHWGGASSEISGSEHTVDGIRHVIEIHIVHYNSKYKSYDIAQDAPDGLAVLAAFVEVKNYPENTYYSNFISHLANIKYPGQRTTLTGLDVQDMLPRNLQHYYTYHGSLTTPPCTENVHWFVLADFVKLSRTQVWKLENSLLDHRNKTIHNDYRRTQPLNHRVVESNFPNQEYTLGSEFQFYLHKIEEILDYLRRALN

In one assay the target is T1, Carbonic anhydrase 15 (Mus musculus, UniProt Q99N23).
T1 sequence (Q99N23 whole entry): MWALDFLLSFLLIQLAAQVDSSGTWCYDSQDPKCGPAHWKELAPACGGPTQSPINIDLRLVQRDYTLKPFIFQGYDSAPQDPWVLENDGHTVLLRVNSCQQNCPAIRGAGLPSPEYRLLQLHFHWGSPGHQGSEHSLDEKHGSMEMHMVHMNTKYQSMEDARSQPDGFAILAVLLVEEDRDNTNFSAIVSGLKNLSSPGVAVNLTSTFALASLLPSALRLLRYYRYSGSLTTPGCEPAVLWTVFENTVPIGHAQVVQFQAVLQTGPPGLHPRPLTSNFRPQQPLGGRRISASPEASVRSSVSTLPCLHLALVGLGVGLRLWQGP
`Nc1ccc(S(N)(=O)=O)cc1Br` came in with a Ki of 83 nM.

`Cn1nc(S(N)(=O)=O)sc1=N` came in with an inhibition constant (Ki) of 49 nM.

Consider `NS(=O)(=O)c1cc(Cl)c(Cl)c(S(N)(=O)=O)c1` [DICHLORPHENAMIDE], for which the affinity, expressed as Ki, was 95 nM.

Take `Nc1ccc(S(=O)(=O)NCCc2ccc(S(N)(=O)=O)cc2)cc1`: the Ki came out at 63 nM.

The compound `Nc1ccccc1S(N)(=O)=O` showed a Ki of 8810 nM.

For the compound `Nc1ccc(S(N)(=O)=O)cc1F`, the Ki was 79 nM.

The compound `NS(=O)(=O)c1ccc(CO)cc1` returned a Ki of 4560 nM.

Compound `NS(=O)(=O)c1ccc(CCO)cc1` had a Ki of 4660 nM.

On to `NNc1ccc(S(N)(=O)=O)cc1`, for which the Ki worked out at 9540 nM.

`Nc1ccc(S(N)(=O)=O)cc1` [SULFANILAMIDE] gave a Ki of 9610 nM.

The compound `CCOc1ccc2nc(S(N)(=O)=O)sc2c1` [ETHOXZOLAMIDE] had a Ki of 58 nM.

Consider `NNc1ccccc1S(N)(=O)=O`, for which the inhibitory constant (Ki) is 6900 nM.

`NCc1ccc(S(N)(=O)=O)cc1` [MAFENIDE] gave a Ki of 970 nM.

`NS(=O)(=O)c1ccc(S(=O)(=O)Nc2cccc3c(Cl)c[nH]c23)cc1`: the Ki came out at 72 nM.

For `Nc1nccc(Nc2ccc(S(N)(=O)=O)cc2)n1`, the Ki was found to be 67 nM.

With `Nc1ccc(S(N)(=O)=O)cc1Cl`, the Ki worked out at 62 nM.

On to `Nc1ccc(S(=O)(=O)NCc2ccc(S(N)(=O)=O)cc2)cc1`, for which affinity was put at a Ki of 49 nM.

With `NS(=O)(=O)Cc1noc2ccccc12` [ZONISAMIDE], the Ki is 634 nM.

Consider `Nc1cc(Cl)c(S(N)(=O)=O)cc1S(N)(=O)=O`, for which the Ki is 757 nM.

For `CC(=O)/N=c1/sc(S(N)(=O)=O)nn1C` [METHAZOLAMIDE], the Ki turned out to be 65 nM.

In turn, `NS(=O)(=O)c1ccc(C(=O)O)cc1` [CARZENIDE] yielded a Ki of 4650 nM.

`CCN[C@H]1CN(CCCOC)S(=O)(=O)c2sc(S(N)(=O)=O)cc21` [BRINZOLAMIDE] returned a Ki of 61 nM.

Compound `Cc1ccc(S(N)(=O)=O)cc1` [P-TOLUENESULFONAMIDE] registered a Ki of 7990 nM.

For the compound `Nc1nnc(S(N)(=O)=O)s1`, affinity was put at a Ki of 48 nM.

In turn, `NS(=O)(=O)c1nc2ccc(O)cc2s1` gave a Ki of 64 nM.

Take `NS(=O)(=O)c1nnc(NS(=O)(=O)c2ccccc2)s1` [BENZOLAMIDE]: the Ki stood at 70 nM.

With `CC1(C)O[C@@H]2[C@@H](CO[C@@]3(COS(N)(=O)=O)OC(C)(C)O[C@@H]23)O1` [TOPIRAMATE], affinity was put at a Ki of 78 nM.

`NS(=O)(=O)c1nnc(-c2ccccc2Cl)s1` showed a Ki of 60 nM.

The next assay has as its target Carbonic anhydrase 6 (Homo sapiens, UniProt P23280).
Consider `Cc1ccc(-c2cc(C(F)(F)F)nn2-c2ccc(S(N)(=O)=O)cc2)cc1` [CELECOXIB], for which the Ki is 94 nM.
